Several values for one entry are separate records, joined by “and”; a condition that tells them apart may be missing. Identical values can stand only once.
Experiments:
RSV F protein = format: in vivo; details: Table 4; BALB/c mice, intramuscular, 1 ng vA375 replicon in LNP, days 0 and 21
[1] = Encapsulation efficiency of RNA replicons (Quant-iT RiboGreen); format: physicochemical; details: LNP 40% cationic lipid, 10% DSPC, 48% cholesterol, 2% PEG-DMG; RNA replicon
Method: Briefly, lipids were dissolved in ethanol (2m1), a RNA replicon was dissolved in buffer (2 ml, 100 mM sodium citrate, pH 6) and these were mixed with 2 ml of buffer followed by 1 hour of equilibration. The mixture was then dialized overnight against 1×PBS. The resulting product contained liposomes, with ˜70-95% encapsulation efficiency.
The percentage of encapsulated RNA and RNA concentration were determined by Quant-iT RiboGreen RNA reagent kit (Invitrogen), following manufacturer's instructions. The ribosomal RNA standard provided in the kit was used to generate a standard curve. LNPs were diluted 10× or 100× in 1× TE buffer (from kit) before addition of the dye. Separately, LNPs were diluted 10× or 100× in 1× TE buffer containing 0.5% Triton X before addition of the dye (to disrupt the LNPs and thus to assay total RNA). Thereafter an equal amount of dye was added to each solution and then ˜180 μL of each solution after dye addition was loaded in duplicate into a 96 well tissue culture plate. The fluorescence (Ex 485 nm, Em 528 nm) was read on a microplate reader. All LNP formulations were dosed in vivo based on the encapsulated amount of RNA.

[2] = tested on: H1N1 influenza A strain, Ca107; experiment: Immunogenicity in ferret models (Influenza): microneutralization; format: in vivo, ferrets; details: IM
Method: (§1) For immunization in ferrets, a lipid working solution was freshly prepared by dissolving 22.5 mg of Example 1, 5.9 mg of DSPC, 13.9 mg of Cholesterol and 4.0 mg of PEG2000-conjugated DMPE (cat #880150P, Avanti Polar Lipids, Inc.) in 10 ml ethanol. A 10 mL working solution of RNA was also prepared at a concentration of 0.125 mg/ml in 100 mM citrate buffer (pH 6). The working lipid and RNA solutions were heated at 37° C. for 5 min before being loaded into two 10 cc luer-lok syringes. […] The outlet from the T mixer was also FEP tubing separately, 10 mL of citrate buffer (pH 6) was loaded in a third 10 cc syringe which was connected to a separate piece of tubing. All three syringes were loaded on a syringe pump and driven at 1.0 ml/min. The tubing outlets were positioned to collect the mixtures in a 20 mL glass vial which was gently stirred using a stirring bar. All glass vials were baked at 250° C. for 12 hours prior to experiment to completely inactivate any RNase contaminant. At the end of mixing, the stir bar was taken out and the ethanol/aqueous solution was allowed to equilibrate to room temperature for 1 hour. After incubation, the ethanol/aqueous solution was loaded into a syringe, and mixed with equal volume of 100 mM citrate buffer (pH 6) using the aforementioned Tee-junction process. Next, LNPs were concentrated to 20 mL and dialyzed against 10-15 volumes of 1× PBS using by tangential flow filtration before recovering the final product. The TFF system and hollow fiber filtration membranes were purchased from Spectrum Labs (Rancho Dominguez) and were used according to the manufacturer's guidelines. Polysulfone hollow fiber filtration membranes with a 100 kD pore size cutoff and 8 cm^2 surface area were used. For in vitro and in vivo experiments formulations were diluted to the required RNA concentration with 1×. PBS.
(§2) A total of seven experimental groups with six animals per group (42 animals) were used in this study; two vaccine doses of each RNA formulation (Groups 2-5), two groups vaccinated with a non-adjuvated (H1N1 subunit) or an adjuvated (MF59/H1N1 subunit) commercially available H1N1 influenza subunit vaccine (Groups 6 and 7) and a mock vaccinated group (Group 1). The RNA test vaccines were derived from a recombinant DNA plasmid (pDNA) carrying an alphavirus genome in which the structural genes were replaced with the HA gene from the H1N1 influenza A strain, Ca107. The RNA was then formulated in either cationic oil-in-water emulsion (CNE) or LNP for delivery to host cells via intramuscular (IM) injection. RNA concentrations for each formulation study group were 15 and 45 mcg for CNE and 5 and 15 mcg for LNP. The H1N1 subunit vaccines were used at a HA subunit protein concentration of 15 mcg. Non-vaccinated animals were mock vaccinated with a vehicle control for the RNA test vaccines. All test vaccines were administered by IM injection on Study Days (SD) 0 followed with a booster vaccination on Study Day 56 (8 weeks post 1st immunization).
(§3) Table 5 summarizes Influenza microneutralization data and table 6 the haemagultanin inhibition (HAI) titers. The LNP formulation tested generated immune responses with as little as 5 μg of self-amplifying RNA, as determined by increased HA-specific neutralization and HAI titers.

[3] = tested on: H1N1 influenza A strain, Ca107; experiment: Immunogenicity in ferret models (Influenza): haemagultanin inhibition (HAI) titers; format: in vivo, ferrets; details: IM
Method: as §1, §2, §3

[4] = 5 mcg RNA, Pre-bleed, per animal
[5] = 15 mcg RNA, Pre-bleed, per animal

For `CCCCC/C=C\C/C=C\CCCCCCCCOc1ccc(OCCCCCCCC/C=C\C/C=C\CCCCC)c(COC(=O)CCCN(C)C)c1` [Example 1, 2,5-bis((9Z,12Z)-octadeca-9,12-dien-1-yloxy)benzyl 4-(dimethylamino)butanoate], the “Log10(IgG titer), 1 ng RNA (RSV-F), 2 weeks post 2nd immunization” value (RSV F protein) was 4.43, the “Encapsulation efficiency (RNA %)” value [1] was 96.6% and the Influenza microneutralization titer ([2]; 5 mcg RNA, 4wp1, per animal) was 20 (2×) and 80 and 40 (2×) and 10. The Influenza microneutralization titer ([2]; 5 mcg RNA, 4wp2, per animal) was 640 (2×) and >20480 (3×) and 320, the Influenza microneutralization titer ([2]; 5 mcg RNA, 8wp1, per animal) was 20 (2×) and 40 (2×) and 10 and <10 and the Influenza microneutralization titer [2, 4] was <10. The Influenza microneutralization titer ([2]; 15 mcg RNA, 4wp1, per animal) was 160 (2×) and 320 and 80 (2×) and 40, the Influenza microneutralization titer ([2]; 15 mcg RNA, 4wp2, per animal) was 640 (4×) and >20480 (2×) and the Influenza microneutralization titer ([2]; 15 mcg RNA, 8wp1, per animal) was 40 (3×) and 80 (2×) and 20. The Influenza microneutralization titer [2, 5] was <10, the “Influenza HAI titer” value ([3]; 5 mcg RNA, 4wp1, per animal) was 20 (2×) and 80 and 40 (2×) and 10 and the “Influenza HAI titer” value ([3]; 5 mcg RNA, 4wp2, per animal) was 640 (2×) and >20480 (3×) and 320. For the same compound, the “Influenza HAI titer” value ([3]; 5 mcg RNA, 8wp1, per animal) was 20 (2×) and 40 (2×) and 10 and <10, the “Influenza HAI titer” value [3, 4] was <10 and the “Influenza HAI titer” value ([3]; 15 mcg RNA, 4wp1, per animal) was 160 (2×) and 320 and 80 (2×) and 40. The “Influenza HAI titer” value ([3]; 15 mcg RNA, 4wp2, per animal) was 640 (4×) and >20480 (2×), the “Influenza HAI titer” value ([3]; 15 mcg RNA, 8wp1, per animal) was 40 (3×) and 80 (2×) and 20 and the “Influenza HAI titer” value [3, 5] was <10.
